Measurements taken from patent US20120172384A1, “HETEROCYCLYLAMINOPYRIMIDINES AS KINASE INHIBITORS” (priority 2009, published 2012).

Experiments:
[1] = target: T1, ZAP-70 (Homo sapiens, UniProt P43403); assay: ZAP-70 kinobeads assay; format: binding; conditions: cell lysate, dot blot with ZAP-70 antibody
T1 construct: endogenous in cells
T1 sequence (P43403 1-619): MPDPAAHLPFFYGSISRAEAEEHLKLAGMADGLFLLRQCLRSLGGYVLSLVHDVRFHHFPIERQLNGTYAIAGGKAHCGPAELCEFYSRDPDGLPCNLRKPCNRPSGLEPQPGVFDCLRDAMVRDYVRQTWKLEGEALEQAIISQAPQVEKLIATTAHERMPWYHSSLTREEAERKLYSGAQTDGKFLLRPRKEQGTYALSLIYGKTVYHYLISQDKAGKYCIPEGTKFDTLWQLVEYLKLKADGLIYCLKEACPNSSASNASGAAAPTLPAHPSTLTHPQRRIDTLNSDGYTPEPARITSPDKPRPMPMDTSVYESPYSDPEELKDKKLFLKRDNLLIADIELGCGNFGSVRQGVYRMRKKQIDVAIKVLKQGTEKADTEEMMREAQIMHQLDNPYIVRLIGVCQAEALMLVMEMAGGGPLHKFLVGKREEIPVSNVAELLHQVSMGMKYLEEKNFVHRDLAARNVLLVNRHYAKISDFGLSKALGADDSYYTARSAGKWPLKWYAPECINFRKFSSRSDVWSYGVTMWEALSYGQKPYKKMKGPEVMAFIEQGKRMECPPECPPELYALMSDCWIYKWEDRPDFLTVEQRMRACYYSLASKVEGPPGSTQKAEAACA
Method: (§1) The compounds of the present invention as described in the previous examples were tested in the ZAP-70 kinobeads assay as described (EP-A 1862802 and WO-A 2007/137867). Briefly, test compounds (at various concentrations) and the affinity matrix with the immobilized aminopyrido-pyrimidine ligand 24 are added to cell lysate aliquots and allowed to bind to the proteins in the lysate sample. After the incubation time the beads with captured proteins are separated from the lysate. Bound proteins are then eluted and the presence ZAP-70 is detected and quantified using a specific antibody in a dot blot procedure and the Odyssey infrared detection system.

[2] = target: T2, JAK3 (Homo sapiens, UniProt P52333); assay: JAK3 kinobeads assay; format: binding; conditions: cell lysate, dot blot with JAK3 specific antibody
T2 construct: endogenous in cells
T2 sequence (P52333 1-1124): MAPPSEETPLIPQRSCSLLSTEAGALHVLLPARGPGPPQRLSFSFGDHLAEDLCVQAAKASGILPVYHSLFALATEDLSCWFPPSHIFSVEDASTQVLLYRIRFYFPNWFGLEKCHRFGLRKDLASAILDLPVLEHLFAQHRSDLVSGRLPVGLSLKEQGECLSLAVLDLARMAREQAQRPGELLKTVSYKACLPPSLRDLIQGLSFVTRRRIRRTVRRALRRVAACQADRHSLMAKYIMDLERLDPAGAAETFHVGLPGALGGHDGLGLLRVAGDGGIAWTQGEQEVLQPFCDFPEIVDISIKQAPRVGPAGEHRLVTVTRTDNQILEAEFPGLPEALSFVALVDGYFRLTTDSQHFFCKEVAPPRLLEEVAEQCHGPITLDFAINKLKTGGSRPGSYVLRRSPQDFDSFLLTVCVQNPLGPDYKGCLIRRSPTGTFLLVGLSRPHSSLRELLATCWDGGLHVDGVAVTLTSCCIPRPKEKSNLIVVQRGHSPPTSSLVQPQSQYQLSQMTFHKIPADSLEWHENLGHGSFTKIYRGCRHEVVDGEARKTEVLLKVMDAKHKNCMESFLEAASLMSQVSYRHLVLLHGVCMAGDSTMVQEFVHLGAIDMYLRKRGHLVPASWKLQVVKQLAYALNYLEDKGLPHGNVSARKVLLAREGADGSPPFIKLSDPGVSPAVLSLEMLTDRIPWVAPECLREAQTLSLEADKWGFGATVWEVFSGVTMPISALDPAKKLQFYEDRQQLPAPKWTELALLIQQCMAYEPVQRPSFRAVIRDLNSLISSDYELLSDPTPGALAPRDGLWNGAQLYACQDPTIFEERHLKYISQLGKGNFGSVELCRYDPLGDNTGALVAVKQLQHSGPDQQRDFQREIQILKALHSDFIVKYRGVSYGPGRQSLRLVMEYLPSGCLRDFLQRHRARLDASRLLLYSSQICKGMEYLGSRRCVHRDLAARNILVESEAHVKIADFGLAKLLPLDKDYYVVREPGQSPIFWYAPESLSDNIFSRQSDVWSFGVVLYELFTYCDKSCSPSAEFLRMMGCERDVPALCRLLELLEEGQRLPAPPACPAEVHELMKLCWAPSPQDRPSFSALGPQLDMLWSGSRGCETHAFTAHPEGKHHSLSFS
Method: as §1
Compounds were tested by the procedure described in Example 102 but using a JAK3 specific antibody (Cell Signaling Technology, Inc., Danvers, US, catalogue number 3775) instead of a ZAP70 antibody.

Row | SMILES | IC50 [1] [nM] | IC50 [2] [nM]
1 | Cn1ccc(Nc2ncc(F)c(Nc3ccccc3NS(C)(=O)=O)n2)n1 [Example 1, N-(2-(5-fluoro-2-(1-methyl-1H-pyrazol-3-ylamino)pyrimidin-4-ylamino)phenyl)methanesulfonamide] | 1000 to 10000 | 100 to 1000
2 | COc1ccc(Nc2nc(Nc3cc(C(C)C)nn3C)ncc2Cl)c(NS(C)(=O)=O)c1 [Example 11, N-(2-(5-chloro-2-(3-isopropyl-1-methyl-1H-pyrazol-5-ylamino)pyrimidin-4-ylamino)-5-methoxyphenyl)methanesulfonamide] | 100 to 1000 | 100 to 1000
3 | CS(=O)(=O)Nc1ccccc1Nc1nc(Nc2cnoc2)ncc1Cl [Example 44, N-(2-((5-chloro-2-(isoxazol-4-ylamino)pyrimidin-4-yl)amino)phenyl)methanesulfonamide] | 1000 to 10000 | 100 to 1000
4 | CCn1ncc(Nc2ncc(Cl)c(Nc3ccc(OC)cc3NS(C)(=O)=O)n2)c1C [Example 77, N-(2-((5-chloro-2-((1-ethyl-5-methyl-1H-pyrazol-4-yl)amino)pyrimidin-4-yl)amino)-5-methoxyphenyl)methanesulfonamide] | ≤ 100 | 100 to 1000
5 | CCn1cc(Nc2ncc(Cl)c(Nc3ccccc3NS(C)(=O)=O)n2)c(C)n1 [Example 33, N-(2-(5-chloro-2-(1-ethyl-3-methyl-M-pyrazol-4-ylamino)pyrimidin-4-ylamino)phenyl)methanesulfonamide] | 100 to 1000 | ≤ 100
6 | CS(=O)(=O)Nc1ccccc1Nc1nc(Nc2cn[nH]c2)ncc1F [Example 23, N-(2-(2-(1H-pyrazol-4-ylamino)-5-fluoropyrimidin-4-ylamino)phenyl)methanesulfonamide] | 100 to 1000 | ≤ 100
7 | COc1ccc(Nc2nc(Nc3ccon3)ncc2Cl)c(NS(C)(=O)=O)c1 [Example 3, N-(2-(5-chloro-2-(isoxazol-3-ylamino)pyrimidin-4-ylamino)-5-methoxyphenyl)methanesulfonamide] | 100 to 1000 | ≤ 100
8 | COc1ccc(Nc2nc(Nc3ccon3)ncc2F)c(NS(C)(=O)=O)c1 [Example 36, N-(2-(5-fluoro-2-(isoxazol-3-ylamino)pyrimidin-4-ylamino)-5-methoxyphenyl)methanesulfonamide] | 1000 to 10000 | 100 to 1000
9 | CCn1cc(Nc2ncc(F)c(Nc3ccc(OC)cc3NS(C)(=O)=O)n2)c(C)n1 [Example 34, N-(2-(2-(1-ethyl-3-methyl-1H-pyrazol-4-ylamino)-5-fluoropyrimidin-4-ylamino)-5-methoxyphenyl)methanesulfonamide] | 100 to 1000 | 100 to 1000
10 | Cn1cc(Nc2ncc(Br)c(Nc3ccccc3NS(C)(=O)=O)n2)cn1 [Example 41, N-(2-(5-bromo-2-(1-methyl-1H-pyrazol-4-ylamino)pyrimidin-4-ylamino)phenyl)methanesulfonamide] | 100 to 1000 | ≤ 100
11 | COc1ccc(Nc2nc(Nc3cn(C)nc3C)ncc2F)c(NS(C)(=O)=O)c1 [Example 32, N-(2-(2-(1,3-dimethyl-M-pyrazol-4-ylamino)-5-fluoropyrimidin-4-ylamino)-5-methoxyphenyl)methanesulfonamide] | 100 to 1000 | 100 to 1000
12 | Cn1cc(Nc2ncc(Cl)c(Nc3ccccc3NS(C)(=O)=O)n2)cn1 [Example 20, N-(2-(5-chloro-2-(1-methyl-1H-pyrazol-4-ylamino)pyrimidin-4-ylamino)phenyl)methanesulfonamide] | 100 to 1000 | ≤ 100
13 | Cn1cc(Nc2ncc(F)c(Nc3ccccc3NS(C)(=O)=O)n2)cn1 [Example 22, N-(2-(5-fluoro-2-(1-methyl-1H-pyrazol-4-ylamino)pyrimidin-4-ylamino)phenyl)methanesulfonamide] | 100 to 1000 | ≤ 100
14 | COc1ccc(Nc2nc(Nc3c(C)nn(C)c3C)ncc2Cl)c(NS(C)(=O)=O)c1 [Example 13, N-(2-(5-chloro-2-(1,3,5-trimethyl-1H-pyrazol-4-ylamino)pyrimidin-4-ylamino)-5-methoxyphenyl)methanesulfonamide] | 100 to 1000 | 1000 to 10000
15 | CCn1nccc1Nc1ncc(Cl)c(Nc2ccc(OC)cc2NS(C)(=O)=O)n1 [Example 29, N-(2-(5-chloro-2-(1-ethyl-1H-pyrazol-5-ylamino)pyrimidin-4-ylamino)-5-methoxyphenyl)methanesulfonamide] | 100 to 1000 | 1000 to 10000
16 | Cn1ccc(Nc2ncc(Cl)c(Nc3ccccc3NS(C)(=O)=O)n2)n1 [Example 16, N-(2-(5-chloro-2-(1-methyl-1H-pyrazol-3-ylamino)pyrimidin-4-ylamino)phenyl)methanesulfonamide] | 100 to 1000 | ≤ 100
17 | COc1ccc(Nc2nc(Nc3cnn(C)c3C)ncc2Cl)c(NS(C)(=O)=O)c1 [Example 67, N-(2-((5-chloro-2-((1,5-dimethyl-1H-pyrazol-4-yl)amino)pyrimidin-4-yl)amino)-5-methoxyphenyl)methanesulfonamide] | ≤ 100 | 100 to 1000
18 | COc1ccc(Nc2nc(Nc3ccn(C)n3)ncc2F)c(NS(C)(=O)=O)c1 [Example 7, N-(2-(5-fluoro-2-(1-methyl-1H-pyrazol-3-ylamino)pyrimidin-4-ylamino)-5-methoxyphenyl)methanesulfonamide] | 100 to 1000 | 100 to 1000
19 | Cc1nn(C)cc1Nc1ncc(Cl)c(Nc2ccccc2NS(C)(=O)=O)n1 [Example 35, N-(2-(5-chloro-2-(1,3-dimethyl-1H-pyrazol-4-ylamino)pyrimidin-4-ylamino)phenyl)methanesulfonamide] | ≤ 100 | ≤ 100
20 | CCCCn1nc(C)cc1Nc1ncc(Cl)c(Nc2ccc(OC)cc2NS(C)(=O)=O)n1 [Example 86, N-(2-((2-((1-butyl-3-methyl-1H-pyrazol-5-yl)amino)-5-chloropyrimidin-4-yl)amino)-5-methoxyphenyl)methanesulfonamide] | ≤ 100 | 
21 | CCc1nn(C)c(Nc2ncc(Cl)c(Nc3ccc(OC)cc3NS(C)(=O)=O)n2)c1C [Example 15, N-(2-(5-chloro-2-(3-ethyl-1,4-dimethyl-1H-pyrazol-5-ylamino)pyrimidin-4-ylamino)-5-methoxyphenyl)methanesulfonamide] | 1000 to 10000 | 
22 | COc1ccc(Nc2nc(Nc3c(C)noc3C)ncc2Cl)c(NS(C)(=O)=O)c1 [Example 19, N-(2-(5-chloro-2-(3,5-dimethylisoxazol-4-ylamino)pyrimidin-4-ylamino)-5-methoxyphenyl)methanesulfonamide] | 1000 to 10000 | 
23 | CCCn1nc(C)cc1Nc1ncc(Cl)c(Nc2ccc(OC)cc2NS(C)(=O)=O)n1 [Example 69, N-(2-((5-chloro-2-((3-methyl-1-propyl-1H-pyrazol-5-yl)amino)pyrimidin-4-yl)amino)-5-methoxyphenyl)methanesulfonamide] | ≤ 100 | 
24 | COc1ccc(Nc2nc(Nc3ccnn3CC3CC3)ncc2Cl)c(NS(C)(=O)=O)c1 [Example 60, N-(2-((5-chloro-2-((1-(cyclopropylmethyl)-1H-pyrazol-5-yl)amino)pyrimidin-4-yl)amino)-5-methoxyphenyl)methanesulfonamide] | 100 to 1000 | 
